According to article PMC9259562 (Scientific Reports, 2022):
Square brackets hold non-standard residues; d marks the D form. Peptide text beside a SMILES is read from it. βAla = NCCC(=O)O

Tests used:
[1] = target: Stx2a A-subunit (Escherichia phage 933W, UniProt P09385); experiment: biochemical; type: binding, Escherichia coli
[2] = system: Stx2a cytotoxicity in Vero cells; details: 72 h

Chain of Stx2a A-subunit (P09385 23-319 limits assumed): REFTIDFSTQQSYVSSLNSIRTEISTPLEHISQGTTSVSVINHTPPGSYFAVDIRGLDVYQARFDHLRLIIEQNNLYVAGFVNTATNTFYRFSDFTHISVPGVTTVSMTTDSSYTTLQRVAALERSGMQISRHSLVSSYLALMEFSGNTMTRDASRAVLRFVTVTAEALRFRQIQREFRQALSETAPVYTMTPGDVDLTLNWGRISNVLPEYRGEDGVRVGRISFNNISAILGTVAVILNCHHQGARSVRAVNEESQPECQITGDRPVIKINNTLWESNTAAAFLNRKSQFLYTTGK

| Compound | IC50 [1] [µM] | IC50 [2] [µM] |
| --- | --- | --- |
| C[C@H](NC(=O)[C@H](CCCNC(=N)N)NC(=O)[C@H](CCCNC(=N)N)NC(=O)[C@@H](N)CCCNC(=N)N)C(N)=O [R3A-mono] (H-RRRA-NH2) | 89.6 | 52.1 ± 3.5 |
| N=C(N)NCCC[C@H](NC(=O)[C@H](CCCNC(=N)N)NC(=O)[C@H](CCCNC(=N)N)NC(=O)[C@@H](N)CCCNC(=N)N)C(N)=O [R4-mono] (H-RRRR-NH2) | 0.387 | 55.4 ± 8.9 |
| C[C@H](NC(=O)[C@H](CCCNC(=N)N)NC(=O)[C@@H](N)CCCNC(=N)N)C(N)=O [R2A-mono] (H-Arg-Arg-Ala-NH2) | 132 | 66 ± 17 |
| C[C@H](N)C(=O)N[C@@H](CCCNC(=N)N)C(=O)N[C@@H](CCCNC(=N)N)C(=O)N[C@@H](CCCNC(=N)N)C(=O)N[C@@H](CCCNC(=N)N)C(=O)N[C@@H](C)C(N)=O [AR4A-mono] (H-ARRRRA-NH2) | 2.27 | 51.6 ± 2.2 |
| N=C(N)NCCC[C@H](NC(=O)[C@H](CCCNC(=N)N)NC(=O)[C@@H](N)CCCNC(=N)N)C(N)=O [R3-mono] (H-Arg-Arg-Arg-NH2) | 3.68 | 78.7 ± 4.7 |
| CSCC[C@H](NC(=O)[C@H](C)NC(=O)[C@@H](N)CCSC)C(=O)N[C@@H](CCSC)C(=O)NCCC(=O)N[C@@H](CCCNC(=N)N)C(=O)N[C@@H](CCCNC(=N)N)C(=O)N[C@@H](CCCNC(=N)N)C(=O)N[C@@H](CCCNC(=N)N)C(=O)N[C@@H](C)C(N)=O [MMβA-mono, reference compound] (H-MAMM[βAla]RRRRA-NH2) | – | 21 ± 4 |
| C[C@H](NC(=O)[C@H](CCCNC(=N)N)NC(=O)[C@H](CCCNC(=N)N)NC(=O)[C@H](CCCNC(=N)N)NC(=O)[C@@H](N)CCCNC(=N)N)C(N)=O [R4A-mono] (H-RRRRA-NH2) | – | 56.8 ± 2.8 |
